Test results: patent publication US12173320B2, “Production of red blood cells and platelets from stem cells” (BOSTON MEDICAL CENTER CORPORATION, priority 2012, dated 2024)

Columns and labels:
iPSC-derived MEPs = experiment: Live versus dead cell FACS (propidium iodide vs. Hoechst) of MEPs; format: cell-based, human
Protocol: 6-formylindolo[3,2-b]carbazole (FICZ), an AHR small molecule agonist, and CH223191, an AHR competitive inhibitor were used for these assays. CH223191 was added to mesoderm cultures at Day 6 at 5 μM (lx) and 2.504 (0.5×). 0.2 μM FICZ was added to cultures at Day 7 and media was added daily. DMSO was used as a vehicle control.
Roughly 10^5 cells were collected, spun, and re-suspended in 0.5% BSA in PBS. Samples were incubated for 30 min at ambient temperature with human antibodies including CD41a-FITC (BD 555466), CD235-PE (BD 555570), CD71-FITC (BD 555536), washed and spun at 3300 rpm for 7 min, and re-suspended in 0.5% BSA in PBS with 1 ug/ml Propidium Iodide. Samples were run on a BD FACScalibur using Cellquest Pro software and analyzed via FloJo 8.7. For ploidy analysis, cells were treated with 1.5% NP-40 (Boston Bioproducts P-872) and 62.5 ug/ml Propidium Iodide in PBS immediately before FACScalibur interrogation. For murine bone marrow, samples were first incubated for 5 min at ambient temperature with murine conjugated antibody CD16/32 (BD 553142) before a 30 min incubation with c-Kit-PE (BD 553355), CD41a-FITC (BD 553848), Ter119-PE (BD 553673). For cell viability assays, 2-3×10 ^5 cells were collected, re-suspended in 8.8 ug/ml Hoecsht 33342 in PBS supplemented with 5% FBS. Samples were then incubated in the dark at 37° C. for 15 min, washed, and re-suspended in 1 ug/ml Propidium Iodide in 5% FBS. Samples were run on an LSR-II machine with FACSDiva software and analyzed via FloJo 8.7.
In order to determine whether FICZ-mediated transactivation of the AhR receptor was responsible for the exponential expansion of iPSC-derived MEPs, the previously described Hoecsht/Propidium Iodide apoptosis assay was performed using the known AhR inhibitor CH223191. As previously shown in FIG. 3, fewer cells stained with propidium iodide after FICZ treatment (e.g., 15.5% vs. 8.09%) (FIG. 5E). […] The efficacy of the CH223191 was confirmed by its ability to block CY1^31B1 induction as assayed by qRT-PCR (FIG. 5F).

[1] = test system: red cell-depleted bone marrow from C57BL/6 mice; experiment: MEP production in murine bone marrow culture (FACS); format: cell-based, mouse; settings: 0.2 μM FICZ, 3 days, versus vehicle
Protocol: Representative FACS analysis dot plots of red cell depleted C57B6 bone marrow grown for 3 days in +/−0.2 μM FICZ. 1×10^5 cells were initially treated with CD16/32 Fc receptor block, followed by directly conjugated monoclonal antibodies for the designated markers.
Roughly 10^5 cells were collected, spun, and re-suspended in 0.5% BSA in PBS. Samples were incubated for 30 min at ambient temperature with human antibodies including CD41a-FITC (BD 555466), CD235-PE (BD 555570), CD71-FITC (BD 555536), washed and spun at 3300 rpm for 7 min, and re-suspended in 0.5% BSA in PBS with 1 ug/ml Propidium Iodide. Samples were run on a BD FACScalibur using Cellquest Pro software and analyzed via FloJo 8.7. For ploidy analysis, cells were treated with 1.5% NP-40 (Boston Bioproducts P-872) and 62.5 ug/ml Propidium Iodide in PBS immediately before FACScalibur interrogation. For murine bone marrow, samples were first incubated for 5 min at ambient temperature with murine conjugated antibody CD16/32 (BD 553142) before a 30 min incubation with c-Kit-PE (BD 553355), CD41a-FITC (BD 553848), Ter119-PE (BD 553673). For cell viability assays, 2-3×10 ^5 cells were collected, re-suspended in 8.8 ug/ml Hoecsht 33342 in PBS supplemented with 5% FBS. […] Samples were run on an LSR-II machine with FACSDiva software and analyzed via FloJo 8.7. […]

O=Cc1c2c(cc3c1=Nc1ccccc1-3)=Nc1ccccc1-2 [FICZ, 6-formylindolo[3,2-b]carbazole]
cells stained with propidium iodide (iPSC-derived MEPs; D13 MEPs, FICZ added at D7, untreated 15.5%): 8.09% | population of live cells as delineated by FSC and SSC (iPSC-derived MEPs; day 15 MEPs + FICZ): 32.6% | live cells PI- Hoechst+ (iPSC-derived MEPs; day 15 MEPs + FICZ, gated from FSC vs. SSC population): 97.7% | cell death by propidium iodide staining and Hoechst dye exclusion (iPSC-derived MEPs; day 30 MEPs, versus untreated control): significantly less cell death | CD41+ Ter119+ MEPs in culture [1]: distinct populations
